Among the data in patent EP0097127A2, “Cephalosporin derivatives, process for their preparation and pharmaceutical compositions containing them” (CIBA-GEIGY AG, priority 1982, dated 1983) are ED50 values, retold here.

Bounds are passed on as bounds.

Common to all, as to assay: Chemotherapeutic activity against systemic infection in mice
Assay type in all cases: in vivo

One experiment has as its system Klebsiella pneumonia. The conditions noted are these: Klebsiella pneumoniae; systemic infection in mice with Klebsiella pneumonia; oral application. Here is the method: (§1) Die Verbindungen der Formel I, worin Am eine freie Aminogruppe ist und ihre pharmazeutisch verwendbaren, nichttoxischen Salze sind wertvolle, antibiotisch wirksame Substanzen, die insbesondere als antibakterielle Antibiotika verwendet werden können. Beispielsweise haben sie in vivo bei oraler Applikation an der Maus bei systemischen Infektionen mit Staphylococcus aureus eine ED50 von etwa 70-100 mg/kg, und bei systemischen Infektionen mit Enterobakterien, z.B. Escherichia coli, Klebsiella pneumonia, Proteus mirabilis oder Proteus morganii eine ED50 von etwa 0.35 bis 100 mg/kg.
(§2) Chemotherapeutische Wirksamkeit gegen systemische Infektionen in Mäusen.

The subject of experiment [1] is Staphylococcus aureus 10B. The conditions noted are these: systemic infection in mice with Staphylococcus aureus 10B; oral application. The method, then: as §1, §2
The test system of another experiment is Escherichia coli 2018. The conditions noted are these: systemic infection in mice with Escherichia coli 2018; oral application. Here is the method: as §1, §2
For a further experiment, the system named is Proteus mirabilis. The conditions noted are these: systemic infection in mice with Proteus mirabilis; oral application. The method, then: as §1, §2
In the next experiment the test system is Escherichia coli 205. The conditions noted are these: systemic infection in mice with Escherichia coli 205; oral application. Here is the method: as §1, §2
A further experiment concerns Proteus morganii. The conditions noted are these: Morganella morganii; systemic infection in mice with Proteus morganii; oral application. The method, then:
as §1, §2

With `CO/N=C(\C(=O)N[C@@H]1C(=O)N2C(C(=O)OCC(=O)O[C@@H]3C[C@@H]4CC[C@@]3(C)C4(C)C)=CCS[C@H]12)c1csc(N)n1` [Testverbindung 1, Ceftizoxime-(ℓ)-bornyloxycarbonylmethylester], the ED50 in the experiment on Klebsiella pneumonia turned out to be 6 mg/kg; in experiment [1], 70 mg/kg; in the experiment with Escherichia coli 2018, 0.35 mg/kg; in the experiment on Proteus mirabilis it was 10 mg/kg; in the experiment on Escherichia coli 205 it was 1 mg/kg; with Proteus morganii, 30 mg/kg.

In the case of `CO/N=C(\C(=O)N[C@@H]1C(=O)N2C(C(=O)OCC(=O)OC3CCCCC3)=CCS[C@H]12)c1csc(N)n1` [Testverbindung 2, Ceftizoxime-cyclohexyloxycarbonylmethylester], the ED50 in the experiment on Klebsiella pneumonia is 7 mg/kg; in experiment [1], greater than 100 mg/kg; in the experiment on Escherichia coli 2018, 0.4 mg/kg; in the experiment with Proteus mirabilis it was greater than 30 mg/kg; in the experiment with Escherichia coli 205, 0.5 to 5 mg/kg; with Proteus morganii it was greater than 100 mg/kg.

For `CO/N=C(\C(=O)N[C@@H]1C(=O)N2C(C(=O)OCC(=O)O[C@@H]3C[C@H](C)CC[C@H]3C(C)C)=CCS[C@H]12)c1csc(N)n1` [Testverbindung 3, Ceftizoxime-(9)-menthyloxycarbonylmethylester], the ED50 was 4 mg/kg with Klebsiella pneumonia; 30 to 100 mg/kg in experiment [1]; 1.5 mg/kg in the experiment on Escherichia coli 2018; no less than 30 mg/kg in the experiment with Proteus mirabilis; 4 mg/kg in the experiment on Escherichia coli 205; 100 mg/kg with Proteus morganii.

A word on the ED50: it is the midpoint of the dose-response relation. Read a high ED50 as a need for a large dose.
